Measured values taken from patent US8354422B2, “Pyrimidine inhibitors of kinase activity” (Abbott Laboratories Inc., priority 2009, dated 2013).
pIC50: −log10 of the molar value.

These compounds were tested against T1, C-terminal GST-tagged, recombinant, human IGF-1R, amino acids 954-1367 (Homo sapiens, UniProt P08069) (assay: IGF-1R kinase activity, homogenous time-resolved fluorescence (HTRF) in vitro kinase assay). Details: IGF-1R kinase HTRF assay, ATP 50 μM, biotinylated peptide substrate 0.5 μM, 60 minutes at room temperature.
T1 construct: human IGF-1R, amino acids 954-1367 expressed by baculovirus in Sf21 cells; GST (C); purchased Cell Signaling Technology; host or cells: baculovirus in Sf21 cells
T1 sequence (P08069 954-1367): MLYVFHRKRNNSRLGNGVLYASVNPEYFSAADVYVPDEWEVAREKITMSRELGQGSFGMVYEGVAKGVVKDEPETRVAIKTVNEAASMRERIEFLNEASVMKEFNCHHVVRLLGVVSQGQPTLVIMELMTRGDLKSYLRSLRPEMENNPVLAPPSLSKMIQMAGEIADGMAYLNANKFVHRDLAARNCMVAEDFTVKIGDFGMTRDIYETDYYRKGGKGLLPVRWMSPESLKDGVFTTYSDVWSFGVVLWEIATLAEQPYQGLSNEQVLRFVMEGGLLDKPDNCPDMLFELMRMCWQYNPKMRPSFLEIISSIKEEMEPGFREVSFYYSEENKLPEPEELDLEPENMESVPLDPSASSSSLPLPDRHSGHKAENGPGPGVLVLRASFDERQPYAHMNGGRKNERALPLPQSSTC
Type: biochemical
Experimental: IGF-1R kinase activity was assayed by a homogenous time-resolved fluorescence (HTRF) in vitro kinase assay (Mathis, G., HTRF(R) Technology. J Biomol Screen, 1999. 4(6): p. 309-314). Specifically, 10 μL C-terminal GST-tagged, recombinant, human IGF-1R, amino acids 954-1367 expressed by baculovirus in Sf21 cells (Cell Singaling Technology) was mixed with 10 μL inhibitor (various concentrations, 2% final DMSO) and 10 μL of ATP (50 μM final concentration) in reaction buffer (50 mM HEPES, pH […], 2 mM MnCl2, 0.1% BSA and 1 mM DTT, 40 μL final volume). The reaction was initiated by addition of 10 μL of biotinylated peptide substrate (Biotin-Ahx-[…], 0.5 μM final concentration) in a black 384-well plate (Packard). After 60 minutes incubation at room temperature, the reaction was quenched by addition of 60 μL stop/revelation buffer to give 30 mM EDTA, 1 μg/mL streptavidin-APC (Prozyme), 50 ng/mL anti-phosphotyrosine mAb PT66-K Europium Cryptate, 30 mM HEPES, pH 7.5, 120 mM KF, 0.005% Tween-20, 0.05% BSA). The quenched reaction was allowed to stand at room temperature for 1 hour and then read in a time-resolved fluorescence detector (Envision, Perkin Elmer) at 615 nm and 665 nm simultaneously. The ratio between the signal of 615 nm and 665 nm was used in the calculation of the IC50.

CN(C)CC(=O)Nc1cccc(Nc2nccc(-c3c(-c4ccc(OCc5ccccc5)cc4)nc4ccccn34)n2)c1 [Example 67, N^1-{3-[(4-{2-[4-(benzyloxy)phenyl]imidazo[1,2-a]pyridin-3-yl}pyrimidin-2-yl)amino]phenyl}-N^2,N^2-dimethylglycinamide] and CN(C)CCc1cccc(Nc2nccc(-c3c(-c4ccc(OCc5ccccc5F)cc4)nc4ccccn34)n2)c1 [Example 18, N-{3-[2-(dimethylamino)ethyl]phenyl}-4-(2-{4-[(2-fluorobenzyl)oxy]phenyl}imidazo[1,2-a]pyridin-3-yl)pyrimidin-2-amine] fall in the same range of pIC50: 6.30 to 7.00 for the first, 6.30 to 7.00 for the second.

Compared with COc1cc(N2CCSCC2)ccc1Nc1nccc(-c2c(-c3ccc(OCc4ccccc4)c(OC)c3)nc3ccccn23)n1 [Example 51, 4-{2-[4-(benzyloxy)-3-methoxyphenyl]imidazo[1,2-a]pyridin-3-yl}-N-(2-methoxy-4-thiomorpholin-4-ylphenyl)pyrimidin-2-amine], COc1cc(N2CCOCC2)ccc1Nc1nccc(-c2c(-c3ccc(OCc4ccccc4)c(OC)c3)nc3ccccn23)n1 [Example 39, 4-{2-[4-(benzyloxy)-3-methoxyphenyl]imidazo[1,2-a]pyridin-3-yl}-N-(2-methoxy-4-morpholin-4-ylphenyl)pyrimidin-2-amine] is higher in pIC50: 6.00 to 6.30 for the first, 6.30 to 7.00 for the second.

First: COc1cc(-c2nc3ccccn3c2-c2ccnc(Nc3cccc(OCCN4CCCC4)c3)n2)ccc1OCc1ccccc1 [Example 30, 4-{2-[4-(benzyloxy)-3-methoxyphenyl]imidazo[1,2-a]pyridin-3-yl}-N-[3-(2-pyrrolidin-1-ylethoxy)phenyl]pyrimidin-2-amine]
Second: COc1cc(-c2nc3ccccn3c2-c2ccnc(Nc3ccc(CCN4CCCC4)cc3)n2)ccc1OCc1ccccc1 [Example 23, 4-{2-[4-(benzyloxy)-3-methoxyphenyl]imidazo[1,2-a]pyridin-3-yl}-N-[4-(2-pyrrolidin-1-ylethyl)phenyl]pyrimidin-2-amine]
The pIC50 of the first is higher: greater than 7.60 for the first, 7.00 to 7.60 for the second. The first is the more potent here.

COc1cc(N(C)CCO)ccc1Nc1nccc(-c2c(-c3ccc(OCc4ccccc4)c(OC)c3)nc3ccccn23)n1 [Example 48, 2-[{4-[(4-{2-[4-(benzyloxy)-3-methoxyphenyl]imidazo[1,2-a]pyridin-3-yl}pyrimidin-2-yl)amino]-3-methoxyphenyl}(methyl)amino]ethanol] and COc1cc(N(C)C)ccc1Nc1nccc(-c2c(-c3ccc(OCc4ccccc4)c(OC)c3)nc3ccccn23)n1 [Example 42, N^1-(4-{2-[4-(benzyloxy)-3-methoxyphenyl]imidazo[1,2-a]pyridin-3-yl}pyrimidin-2-yl)-2-methoxy-N^4,N^4-dimethylbenzene-1,4-diamine] fall in the same range of pIC50: 6.30 to 7.00 for the first, 6.30 to 7.00 for the second.

Compared with COc1cc(-c2nc3ccccn3c2-c2ccnc(Nc3ccc4c(c3)CNCC4)n2)ccc1OCc1ccccc1 [Example 62, N-(4-{2-[4-(benzyloxy)-3-methoxyphenyl]imidazo[1,2-a]pyridin-3-yl}pyrimidin-2-yl)-1,2,3,4-tetrahydroisoquinolin-7-amine], COc1cc(-c2nc3ccccn3c2-c2ccnc(Nc3cccc(N4CCOCC4)c3)n2)ccc1OCc1ccccc1 [Example 25, 4-{2-[4-(benzyloxy)-3-methoxyphenyl]imidazo[1,2-a]pyridin-3-yl}-N-(3-morpholin-4-ylphenyl)pyrimidin-2-amine] is lower in pIC50: 7.00 to 7.60 for the first, 6.30 to 7.00 for the second.

First: CN(C)CCc1cccc(Nc2nccc(-c3c(-c4ccc(OCc5ccccc5)c(C(F)(F)F)c4)nc4ccccn34)n2)c1 [Example 49, 4-{2-[4-(benzyloxy)-3-(trifluoromethyl)phenyl]imidazo[1,2-a]pyridin-3-yl}-N-{3-[2-(dimethylamino)ethyl]phenyl}pyrimidin-2-amine]
Second: Cc1cc(OCc2ccccc2)ccc1-c1nc2ccccn2c1-c1ccnc(Nc2cccc(CCN(C)C)c2)n1 [Example 10, 4-{2-[4-(benzyloxy)-2-methylphenyl]imidazo[1,2-a]pyridin-3-yl}-N-{3-[2-(dimethylamino)ethyl]phenyl}pyrimidin-2-amine]
The pIC50 of the first is lower: less than 6.00 for the first, 6.30 to 7.00 for the second.

First: COc1cc(N2CCC(N3CCSCC3)CC2)ccc1Nc1nccc(-c2c(-c3ccc(OCc4ccccc4)c(OC)c3)nc3ccccn23)n1 [Example 56, 4-{2-[4-(benzyloxy)-3-methoxyphenyl]imidazo[1,2-a]pyridin-3-yl}-N-[2-methoxy-4-(4-thiomorpholin-4-ylpiperidin-1-yl)phenyl]pyrimidin-2-amine]
Second: COc1ccc(S(C)(=O)=O)cc1Nc1nccc(-c2c(-c3ccc(OCc4ccccc4)c(OC)c3)nc3ccccn23)n1 [Example 34, 4-{2-[4-(benzyloxy)-3-methoxyphenyl]imidazo[1,2-a]pyridin-3-yl}-N-[2-methoxy-5-(methylsulfonyl)phenyl]pyrimidin-2-amine]
The pIC50 of the first is lower: 6.30 to 7.00 for the first, 7.00 to 7.60 for the second.

CN(C)CCc1cccc(Nc2nccc(-c3c(-c4ccc(OCc5ccccc5)cc4)nn4ccccc34)n2)c1 [Example 75, 4-{2-[4-(benzyloxy)phenyl]pyrazolo[1,5-a]pyridin-3-yl}-N-{3-[2-(dimethylamino)ethyl]phenyl}pyrimidin-2-amine] and COc1cc(-c2nc3ccccn3c2-c2ccnc(Nc3ccc(CCN(C)C)cc3)n2)ccc1OCc1ccccc1 [Example 69, 4-{2-[4-(benzyloxy)-3-methoxyphenyl]imidazo[1,2-a]pyridin-3-yl}-N-{4-[2-(dimethylamino)ethyl]phenyl}pyrimidin-2-amine] cannot be ordered by pIC50: greater than 7.60 for the first, greater than 7.60 for the second.

First: COc1ccc(CN(C)CCO)cc1Nc1nccc(-c2c(-c3ccc(OCc4ccccc4)c(OC)c3)nc3ccccn23)n1 [Example 64, 2-[{3-[(4-{2-[4-(benzyloxy)-3-methoxyphenyl]imidazo[1,2-a]pyridin-3-yl}pyrimidin-2-yl)amino]-4-methoxybenzyl}(methyl)amino]ethanol]
Second: COc1ccc(C(F)(F)F)cc1Nc1nccc(-c2c(-c3ccc(OCc4ccccc4)c(OC)c3)nc3ccccn23)n1 [Example 40, 4-{2-[4-(benzyloxy)-3-methoxyphenyl]imidazo[1,2-a]pyridin-3-yl}-N-[2-methoxy-5-(trifluoromethyl)phenyl]pyrimidin-2-amine]
The pIC50 of the first is higher: 6.30 to 7.00 for the first, less than 6.00 for the second.

First: COc1ccc(C(F)(F)F)cc1Nc1nccc(-c2c(-c3ccc(OCc4ccccc4)cc3)nc3ccccn23)n1 [Example 41, 4-{2-[4-(benzyloxy)phenyl]imidazo[1,2-a]pyridin-3-yl}-N-[2-methoxy-5-(trifluoromethyl)phenyl]pyrimidin-2-amine]
Second: COc1cc(N2CCOCC2)ccc1Nc1nccc(-c2c(-c3ccc(OCc4ccccc4)cc3)nc3ccccn23)n1 [Example 2, 4-{2-[4-(benzyloxy)phenyl]imidazo[1,2-a]pyridin-3-yl}-N-(2-methoxy-4-morpholin-4-ylphenyl)pyrimidin-2-amine]
The pIC50 of the first is lower: less than 6.00 for the first, 6.30 to 7.00 for the second. The second is the more potent here.

First: COc1cc(-c2nc3ccccn3c2-c2ccnc(Nc3cnn(CCN4CCCC4)c3)n2)ccc1OCc1ccccc1 [Example 37, 4-{2-[4-(benzyloxy)-3-methoxyphenyl]imidazo[1,2-a]pyridin-3-yl}-N-[1-(2-pyrrolidin-1-ylethyl)-1H-pyrazol-4-yl]pyrimidin-2-amine]
Second: COc1cc(-c2nc3ccccn3c2-c2ccnc(Nc3ccc(N4CCN(CCO)CC4)cc3)n2)ccc1OCc1ccccc1 [Example 44, 2-(4-{4-[(4-{2-[4-(benzyloxy)-3-methoxyphenyl]imidazo[1,2-a]pyridin-3-yl}pyrimidin-2-yl)amino]phenyl}piperazin-1-yl)ethanol]
The pIC50 of the first is lower: 6.30 to 7.00 for the first, 7.00 to 7.60 for the second.

FC(F)(F)Oc1cc(-c2nc3ccccn3c2-c2ccnc(Nc3cccc(CCN4CCCC4)c3)n2)ccc1OCc1ccccc1 [Example 58, 4-{2-[4-(benzyloxy)-3-(trifluoromethoxy)phenyl]imidazo[1,2-a]pyridin-3-yl}-N-[3-(2-pyrrolidin-1-ylethyl)phenyl]pyrimidin-2-amine] and COc1cc(-c2nc3sccn3c2-c2ccnc(Nc3ccccc3CN3CCCC3)n2)ccc1OCc1ccccc1 [Example 82, 4-{6-[4-(benzyloxy)-3-methoxyphenyl]imidazo[2,1-b][1,3]thiazol-5-yl}-N-[2-(pyrrolidin-1-ylmethyl)phenyl]pyrimidin-2-amine] cannot be ordered by pIC50: less than 6.00 for the first, less than 6.00 for the second.

Compared with Cn1cc(Nc2nccc(-c3c(-c4ccc(OCc5ccccc5)cc4)nc4ccccn34)n2)cn1 [Example 26, 4-{2-[4-(benzyloxy)phenyl]imidazo[1,2-a]pyridin-3-yl}-N-(1-methyl-1H-pyrazol-4-yl)pyrimidin-2-amine], COc1ccccc1Nc1nccc(-c2c(-c3ccc(OCc4ccccc4)cc3)nc3sccn23)n1 [Example 79, 4-{6-[4-(benzyloxy)phenyl]imidazo[2,1-b][1,3]thiazol-5-yl}-N-(2-methoxyphenyl)pyrimidin-2-amine] is lower in pIC50: 6.30 to 7.00 for the first, less than 6.00 for the second. The first is the more potent here.

COc1cc(N(C)C)ccc1Nc1nccc(-c2c(-c3ccc(OCc4ccccc4)c(OC)c3)nc3sccn23)n1 [Example 81, N^1-(4-{6-[4-(benzyloxy)-3-methoxyphenyl]imidazo[2,1-b][1,3]thiazol-5-yl}pyrimidin-2-yl)-2-methoxy-N^4,N^4-dimethylbenzene-1,4-diamine] was tested, and the pIC50 was 7.00 to 7.60.
